Test results reported in paper PMC10154775, “Specificity of Penicillin Acylases in Deprotection of N-Benzyloxycarbonyl Derivatives of Amino Acids” (Acta Naturae, 2023).

The compounds below were run against T1, Penicillin acylase from Escherichia coli (Escherichia coli, UniProt P06875) (assay: KM as competitive inhibition constant of NIPAB hydrolysis, […] nm). Conditions: pH 7.5, 0.01 M phosphate, 0.1 M KCl, 25 C; competitive with NIPAB.
T1 construct: gene pac; prepared by a procedure described earlier
T1 sequence (P06875 27-235, looked up): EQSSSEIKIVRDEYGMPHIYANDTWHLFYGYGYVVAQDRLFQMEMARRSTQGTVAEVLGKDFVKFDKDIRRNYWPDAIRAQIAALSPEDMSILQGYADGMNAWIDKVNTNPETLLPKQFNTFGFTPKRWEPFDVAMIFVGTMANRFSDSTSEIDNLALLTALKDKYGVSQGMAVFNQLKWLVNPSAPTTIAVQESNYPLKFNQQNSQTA
T1 sequence (P06875 290-846, looked up): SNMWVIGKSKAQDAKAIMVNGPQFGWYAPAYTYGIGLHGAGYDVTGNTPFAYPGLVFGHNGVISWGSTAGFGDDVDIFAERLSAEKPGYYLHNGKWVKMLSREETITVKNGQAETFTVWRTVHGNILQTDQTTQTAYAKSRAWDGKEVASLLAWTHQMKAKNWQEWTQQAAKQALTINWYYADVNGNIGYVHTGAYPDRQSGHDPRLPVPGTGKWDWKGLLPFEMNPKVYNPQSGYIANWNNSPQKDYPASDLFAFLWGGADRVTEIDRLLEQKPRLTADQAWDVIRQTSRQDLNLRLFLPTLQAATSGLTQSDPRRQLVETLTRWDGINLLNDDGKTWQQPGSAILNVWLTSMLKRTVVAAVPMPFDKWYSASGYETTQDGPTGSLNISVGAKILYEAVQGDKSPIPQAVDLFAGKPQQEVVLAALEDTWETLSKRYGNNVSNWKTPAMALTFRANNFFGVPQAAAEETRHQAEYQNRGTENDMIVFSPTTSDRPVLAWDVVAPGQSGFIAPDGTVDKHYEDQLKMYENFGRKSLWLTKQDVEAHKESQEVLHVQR
Format: biochemical
`O=C(O)C[C@H](NC(=O)OCc1ccccc1)C(=O)O` [N-benzyloxycarbonyl derivative of aspartic acid] was tested, and the KM was “the least effective binding substrates for penicillin acylase from Escherichia coli are derivatives of aspartic acid”. With `C[C@H](NC(=O)OCc1ccccc1)C(=O)O` [N-benzyloxycarbonyl-L-Ala] the KM was “expressed as the catalytic constant value (%) with respect to the corresponding alanine derivatives”. For `O=C(O)C[C@H](NC(=O)Cc1ccccc1)C(=O)O` [N-phenylacetyl derivative of aspartic acid], the KM was “the least effective binding substrates for penicillin acylase from Escherichia coli are derivatives of aspartic acid”.
